“And” between values parts separate entries of the source, which are not always exact repeats. Equal entries are not always repeated.
Conditions: Fluid (supercritical or subcritical phases), Impulsive stimulated scattering

N [ammonia]
Conditions	speed of sound
297 K, 620000 kPa	2741 m/s
297 K, 700000 kPa	2836 m/s
297 K, 780000 kPa	2942 m/s and 2932 m/s
297 K, 880000 kPa	3023 m/s
297 K, 970000 kPa	3113 m/s
298 K, 370000 kPa	2376 m/s
298 K, 740000 kPa	2903 m/s
474 K, 1430000 kPa	3280 m/s
476 K, 1550000 kPa	3375 m/s
476 K, 2200000 kPa	3788 m/s
477 K, 1090000 kPa	2954 m/s
479 K, 2220000 kPa	3797 m/s
678 K, 2920000 kPa	4000 m/s
678 K, 3080000 kPa	4072 m/s
678 K, 3140000 kPa	4103 m/s
679 K, 1480000 kPa	3084 m/s
679 K, 2440000 kPa	3740 m/s
679 K, 3750000 kPa	4342 m/s
680 K, 1350000 kPa	2982 m/s and 2970 m/s

From the NIST ThermoML archive (doi:10.1021/je800312g)
